Test results as given in PMC10298530, “Synthesis and Anticancer Activity of A-Ring-Modified Derivatives of Dihydrobetulin” (International Journal of Molecular Sciences, 2023).
Read-outs that look alike come from different tables or passages of the source.

Key:
[1] = system: HEK293; assay: MTT cell viability assay, HEK293; type: cell-based; conditions: Homo sapiens
Source text: (§1) Blokhin National Medical Research Center of Oncology (the Ministry of Health of the Russian Federation, Moscow).

[2] = system: MCF-7; assay: MTT cell viability assay, MCF-7; type: cell-based, human; conditions: for IC50: Homo sapiens, MCF7; for Selectivity index (SI): ratio of IC50 values healthy (HEK293) / MCF-7
Source text: as §1

[3] = system: HCT116; assay: MTT cell viability assay, HCT116; type: cell-based, human; conditions: for IC50: Homo sapiens, HCT-116; for Selectivity index (SI): ratio of IC50 values healthy (HEK293) / HCT116
Source text: as §1

[4] = system: RD TE32; assay: MTT cell viability assay, RD TE32; type: cell-based, human; conditions: for IC50: Homo sapiens; for Selectivity index (SI): ratio of IC50 values healthy (HEK293) / RD TE32
Source text: as §1

[5] = system: MS; assay: MTT cell viability assay, MS; type: cell-based, human; conditions: for IC50: Homo sapiens; for Selectivity index (SI): ratio of IC50 values healthy (HEK293) / MS;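 as to IC50 (mean ± SD): MS is a melanocyte cell line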
Source text: as §1

[6] = system: A549; assay: MTT cell viability assay, A549; type: cell-based, human; conditions: for IC50: Homo sapiens; for Selectivity index (SI): ratio of IC50 values healthy (HEK293) / A549
Source text: as §1

[7] = system: PC-3; assay: MTT cell viability assay, PC-3; type: cell-based, human; conditions: for IC50: Homo sapiens; for Selectivity index (SI): ratio of IC50 values healthy (HEK293) / PC-3
Source text: as §1

[8] = system: HEpG2; assay: MTT cell viability assay, HEpG2; type: cell-based, human; conditions: for IC50: Homo sapiens; for Selectivity index (SI): ratio of IC50 values healthy (HEK293) / HEpG2
Source text: as §1

[9] = system: HBL-100; assay: MTT cell viability assay, HBL-100; type: cell-based, human; conditions: for IC50: Homo sapiens; for Selectivity index (SI): ratio of IC50 values healthy (HEK293) / HBL-100
Experimental: (§2) The cells were cultured in a humidified CO2 incubator (model 460-CE; Thermo Fisher Scientific, Waltham, MA, USA) at +37 °C and 5% CO2.
(§3) The percentage of the viable cells was calculated according to the following equation: cell viability (%) = 100 × (mean absorbance in the treatment group/mean absorbance in the control group). The results were expressed pictorially using Prism 6.0 (GraphPad Software, Boston, MA, USA).

[10] = system: HBL-100/Dox; assay: MTT cell viability assay, HBL-100/Dox; type: cell-based, human; conditions: for IC50: Homo sapiens; for Selectivity index (SI): ratio of IC50 values healthy (HEK293) / HBL-100/Dox
Experimental: as §2, §3

[11] = system: human cancer cell lines; assay: MTT assay, panel of cancer cell lines; conditions: for IC50: Homo sapiens; for cytotoxicity in the screening studies: MTT screening, Table S1
Experimental: In this study, the human embryonic kidney cell line HEK293 was used as the non-cancerous cell line.
To investigate the cytotoxic activity of the compounds under study, the MTT colorimetric assay [45] was performed. […] After 72 h, 20 μL of 5 mg/mL solution of MTT (PanEco, Moscow, Russia), in sterile phosphate-buffered saline (PBS; PanEco, Moscow, Russia), was added to each well and further incubated for 4 h. Then, the medium with the compounds was removed, and the formed formazan crystals were dissolved in 100 μL of DMSO. […] The IC50 values were determined from dose-dependent curves, using Prism 6.0 (GraphPad Software, Boston, MA, USA).

[12] = HEK293, MTT, 72 h of treatment, read-out: IC50 Values (Mean ± SD)
[13] = Table S1, HEK293, read-out: IC50 (mean ± SD)
[14] = MCF-7, MTT, 72 h of treatment, read-out: IC50 Values (Mean ± SD)
[15] = Table S1, MCF-7, read-out: IC50 (mean ± SD)
[16] = HCT116, MTT, 72 h of treatment, read-out: IC50 Values (Mean ± SD)
[17] = Table S1, HCT116, read-out: IC50 (mean ± SD)
[18] = RD TE32, MTT, 72 h of treatment, read-out: IC50 Values (Mean ± SD)
[19] = Table S1, RD TE32, read-out: IC50 (mean ± SD)
[20] = MS, MTT, 72 h of treatment, read-out: IC50 Values (Mean ± SD)
[21] = A549, MTT, 72 h of treatment, read-out: IC50 Values (Mean ± SD)
[22] = PC-3, MTT, 72 h of treatment, read-out: IC50 Values (Mean ± SD)
[23] = Table S1, PC-3, read-out: IC50 (mean ± SD)
[24] = HEpG2, MTT, 72 h of treatment, read-out: IC50 Values (Mean ± SD)
[25] = HBL-100, MTT, 72 h of treatment, read-out: IC50 Values (Mean ± SD)
[26] = Table S1, HBL-100, read-out: IC50 (mean ± SD)
[27] = HBL-100, 72 h, read-out: IC50 Values (Mean ± SD)
[28] = HBL-100, read-out: IC50 (mean ± SD)
[29] = read-out: moderate activity (range)
[30] = Table S1, A549, read-out: IC50 (mean ± SD)
[31] = Table S1, MS, read-out: IC50 (mean ± SD)
[32] = Table S1, HEpG2, read-out: IC50 (mean ± SD)

| Structure (SMILES) | IC50 [1, 12] [µM] | IC50 [1, 13] [µM] | IC50 [2, 14] [µM] | IC50 [2, 15] [µM] | Selectivity index (SI) [2] | IC50 [3, 16] [µM] | IC50 [3, 17] [µM] | Selectivity index (SI) [3] | IC50 [4, 18] [µM] | IC50 [4, 19] [µM] | Selectivity index (SI) [4] | IC50 [5, 20] [µM] | Selectivity index (SI) [5] | IC50 [6, 21] [µM] | Selectivity index (SI) [6] | IC50 [7, 23] [µM] | IC50 [9, 26] [µM] | IC50 [10, 28] [µM] | melting point [°C] | IC50 [6, 30] [µM] | other results |
| --- | --- | --- | --- | --- | --- | --- | --- | --- | --- | --- | --- | --- | --- | --- | --- | --- | --- | --- | --- | --- | --- |
| C=C1C[C@H](C#N)C[C@@]2(C)C1CC[C@]1(C)C2CCC2C3C(C(C)C)CC[C@]3(CO)CC[C@]21C (some centres unmarked) [compound 12, 2-Cyano-28-hydroxy-3,4-seco-3-nor-2,24-cyclolup-4(23)-ene] | 76.5 ± 2.5 | 76.5 ± 2.49 | 64.2 ± 3 | 64.2 ± 3.01 | 1.19 | 51 ± 3.7 | 51 ± 3.67 | 1.50 | 98.6 ± 2.3 | 98.6 ± 2.33 | 0.78 | > 200 | < 0.38 | 44.4 ± 2.4 | 1.72 | 55.7 ± 4.89 | 36.6 ± 1.44 | 63 ± 1.92 | 185.1 | – | IC50 [7, 22]: 55.7 ± 4.9 µM; Selectivity index (SI) [7]: 1.37; IC50 [8, 24]: > 100 µM; Selectivity index (SI) [8]: < 0.77; IC50 [9, 25]: 36.6 ± 1.4 µM; Selectivity index (SI) [9]: 2.09; IC50 [10, 27]: 63 ± 1.9 µM; Selectivity index (SI) [10]: 1.21; IC50 [11, 29]: 16 to 77.8 µM; cytotoxicity in the screening studies [11]: relatively weak or moderate cytotoxicity |
| CC(C)C1CC[C@]2(CO)CC[C@]3(C)C(CCC4[C@@]5(C)CC(C#N)=CC(=O)C5CC[C@]43C)C12 (some centres unmarked) [compound 14, 2-Cyano-28-hydroxy-4-oxo-3,4-seco-3,23-dinor-2,24-cyclolup-2(24)-ene] | 77.8 ± 2.9 | 77.8 ± 2.9 | 56.7 ± 3.7 | 56.7 ± 3.72 | 1.37 | 49.9 ± 0.1 | – | 1.56 | 49.1 ± 1.4 | – | 1.58 | 69.1 ± 1 | 1.13 | 63.2 ± 1.4 | 1.23 | 28.3 ± 2.29 | 46.9 ± 2.22 | 54 ± 1.82 | 121 | 63.2 ± 1.42 | IC50 [7, 22]: 28.3 ± 2.3 µM; Selectivity index (SI) [7]: 2.75; IC50 [8, 24]: > 100 µM; Selectivity index (SI) [8]: < 0.78; IC50 [9, 25]: 46.9 ± 2.2 µM; Selectivity index (SI) [9]: 1.66; IC50 [10, 27]: 54 ± 1.8 µM; Selectivity index (SI) [10]: 1.44; IC50 [11, 29]: 16 to 77.8 µM; cytotoxicity in the screening studies [11]: relatively weak or moderate cytotoxicity |
| COC(=O)[C@]12CCC(C(C)C)C1C1CCC3[C@@]4(C)C[C@@H](C#N)C[C@H](O)C4CC[C@@]3(C)[C@]1(C)CC2 (stereo partly drawn) [compound 19, 2-Cyano-4β-hydroxy-3,4-seco-3,23-dinor-2,24-cyclolup-28-oic acid methyl ester] | 34.6 ± 1.1 | 34.6 ± 1.09 | 47.9 ± 0.3 | – | 0.72 | 28.2 ± 2.1 | 28.2 ± 2.06 | 1.23 | 25.2 ± 0.1 | 25.17 ± 0.11 | 1.37 | 22.2 ± 2 | 1.56 | 25.9 ± 1.8 | 1.34 | 17.2 ± 0.69 | 16 ± 0.94 | 21.1 ± 2.23 | 189.7 | 25.9 ± 1.75 | IC50 [7, 22]: 17.2 ± 0.7 µM; Selectivity index (SI) [7]: 2.01; IC50 [8, 24]: 31.8 ± 2.7 µM; Selectivity index (SI) [8]: 1.09; IC50 [9, 25]: 16 ± 0.9 µM; Selectivity index (SI) [9]: 2.16; IC50 [10, 27]: 21.1 ± 2.2 µM; Selectivity index (SI) [10]: 1.64; IC50 [11, 29]: 16 to 77.8 µM; cytotoxicity in the screening studies [11]: relatively weak or moderate cytotoxicity |
| COC(=O)[C@]12CCC(C(C)C)C1C1CCC3[C@@]4(C)CC(C#N)=C(C)C4CC[C@@]3(C)[C@]1(C)CC2 (some centres unmarked) [compound 23, 2-Cyano-3,4-seco-3,23-dinor-2,4-cyclolup-2(4)-en-28-oic acid methyl ester] | – | > 100 | – | 70.2 ± 3.09 | – | – | > 100 | – | – | > 100 | – | – | – | – | – | > 200 | > 100 | > 100 | 168.5 | > 200 | IC50 [5, 31]: > 100 µM; IC50 [8, 32]: > 200 µM |
| CC(C)C1CC[C@]2(COC(=O)c3ccccc3)CC[C@]3(C)C(CCC4[C@@](C)(CCC#N)C(C(=O)CBr)CC[C@]43C)C12 (some centres unmarked) [compound 28, 28-Benzoyloxy-24-bromo-2-cyano-4-oxo-3,4-seco-3,23-dinorlupane] | – | > 100 | – | 86.1 ± 10.1 | – | – | > 100 | – | – | > 100 | – | – | – | – | – | > 100 | > 100 | > 200 | 91.6 | > 100 | IC50 [5, 31]: > 100 µM; IC50 [8, 32]: > 100 µM |
| CC(C)C1CC[C@]2(COC(=O)c3ccccc3)CC[C@]3(C)C(CCC4[C@@](C)(CCC#N)C(C(=O)C(Br)Br)CC[C@]43C)C12 (some centres unmarked) [compound 29, 28-Benzoyloxy-2-cyano-24,24-dibromo-4-oxo-3,4-seco-3,23-dinorlupane] | – | > 100 | – | 49 ± 5.33 | – | – | > 200 | – | – | 73.2 ± 5.24 | – | – | – | – | – | > 100 | > 100 | > 200 | 107.7 | > 100 | IC50 [5, 31]: > 100 µM; IC50 [8, 32]: > 100 µM |
| COC(=O)[C@]12CCC(C(C)C)C1C1CCC3[C@@](C)(CCC#N)C(C(=O)CBr)CC[C@@]3(C)[C@]1(C)CC2 (some centres unmarked) [compound 30, 24-Bromo-2-cyano-4-oxo-3,4-seco-3,23-dinorlupan-28-oic acid methyl ester] | 24.2 ± 0.5 | 24.2 ± 0.45 | 12 ± 0.1 | 12.04 ± 0.06 | 2.02 | 13.5 ± 0.3 | – | 1.79 | 7.1 ± 0.9 | 7.05 ± 0.91 | 3.41 | 45.9 ± 2.2 | 0.53 | 27.7 ± 0.3 | 0.87 | 34.1 ± 1.28 | 3.62 ± 0.33 | 4.53 ± 0.21 | 124.4 | 27.7 ± 0.31 | IC50 [5, 31]: 46 ± 2.2 µM; IC50 [7, 22]: 34 ± 1.3 µM; Selectivity index (SI) [7]: 0.71; IC50 [8, 24]: 49.6 ± 0.5 µM; Selectivity index (SI) [8]: 0.49; IC50 [9, 25]: 3.6 ± 0.3 µM; Selectivity index (SI) [9]: 6.72; IC50 [10, 27]: 4.5 ± 0.2 µM; Selectivity index (SI) [10]: 5.37; IC50 ([11]; read-out: cytotoxic values (range)): 3.6 to 13.5 µM; cytotoxicity in the screening studies [11]: relatively weak or moderate cytotoxicity |
